Entries after “also recorded” stand apart in the source; their conditions may differ.
Tests used:
B. cereus = assay: Antibiotic disc diffusion assay of antibacterial activity against B. cereus; assay type: cell-based, Bacillus cereus ATCC19637; settings: purified moe A intermediates on B. cereus reporter strain; FIG. 19, 50-200 nM per disc
Protocol: Spots 1 and 2—moe A (100 and 10 nM per disc, respectively); 3—compound 15 (100 nM); 4—compound 16 (100 nM), 5—compound 17 (100 nM), 6—compound 24 (100 nM), 7—mixture of compounds 22 and 23 (200 nM), 8—compound 11 (100 nM), 9—mixture of compounds 22 and 23 (50 nM), 10—mixture of compounds 2 and 3 (200 nM), 11—compound 1 (200 nM), 12—extract from 5 g S. lividans TK24 mycelial cake.
Moes producers S. ghanaensis ATCC14672 and S. bambergiensis NRRL-B12101 were obtained from American Type Culture Collection (“ATCC”) and the U.S. Department of Agriculture, respectively. S. lividans TK24, S. coelicolor M145 (Kieser 2000), S. cyanogenus S136 (Westrich 1999) were used in studies on moe A resistance in Streptomyces. Bacillus cereus ATCC19637 was used as a moe-sensitive test culture.
For all moe production analysis procedures, equal amounts of biomass (wet weight) and fermentation medium were used. […]
Heterologous expression of moe biosynthetic genes in S. lividans TK24 leads to the production of moe derivatives and intermediates. […] Antibiotic disc diffusion assay, LC-MS, MS/MS and determination of accurate mass spectra of moenomycins were carried out as described in (Ostash 2007). ^1H NMR spectra of compound 11 (FIG. 4) were recorded on a Varian Inova 500 (500 MHz) instrument in D2O (4.80 ppm). […]

bacteria = settings: cited from earlier work

Compound	antibacterial activity (bioactivity) in disk diffusion assay (B. cereus)	activity in vivo (biological / antibacterial activity) (bacteria)
C=C(C/C=C(\C)CCC=C(C)C)CCC(C)(C)/C=C/CC/C(C)=C\CO[C@H](COP(=O)(O)OC1OC(C(N)=O)C(C)(O)C(OC(N)=O)C1OC1OC(COC2OC(CO)C(O)C(O)C2O)C(O)C(O)C1NC(C)=O)C(=O)O (some centres unmarked) [Compound 11]	has biological activity; also recorded: biologically active	–
Neryl-moenomycin	–	biologically inactive

Source: patent publication US9115358B2, “Moenomycin biosynthesis-related compositions and methods of use thereof” (priority 2006, dated 2015)
